The test system of one test is 5′-TGTTAAACA-3′. Description: Quantitative DNase I footprint titration. Format: binding. The following applies: 9 bp site. The source says: To identify a flexible linker amino acid, four polyamides of the formula ImPyPy-X-PyPyPy-Dp where X=Py, G (glycine), β, or γ, respectively, were synthesized and their equilibrium association constants determined for 5′-[…]-3′ (9 base pair) sites. (Trauger, et al. J. Am. Chem. Soc., 118, 6160 (1996).)

The next test has as its system 5′-AAAAAGACAAAAA-3′. Kind of test: Quantitative DNase I footprint titration. The test is classed as binding. The following applies: 13 bp site. The source says:
At least two distinct binding modes are expected to form for the ImPyPy-X-PyPyPy-Dp polyamides described above that bind in an extended conformation. These binding modes as “slipped” and “overlapped”. In the overlapped (9 base pair) binding mode, two ImPyPy-X-PyPyPy-Dp polyamides bind directly opposite one another. The “slipped” (13 base pair) binding mode integrates the 2:1 and 1:1 polyamide-DNA binding motifs at a single site. In this binding mode, the ImPyPy moieties of two ImPyPy-X-PyPyPy-Dp polyamides bind the central 5′-AGACA-3′ sequence in a 2:1 manner as in the ImPyPy homodimer, and the PyPyPy moieties of the polyamides bind to A,T flanking sequences as in the 1:1 complexes of distamycin.

The test system of test [1] is 282 bp EcoRI/PvuII restriction fragment from plasmid pSES9hp (5′-TGGCCA-3′, 5′-TGCGCA-3′, 5′-TGGGGA-3′ sites). Kind of test: Affinity cleaving, identification of binding orientation. The following applies: 25 mM Tris-acetate, 10 mM NaCl, 100 μM/base pair calf thymus DNA, pH 7.0, 22° C. Here is the method: Affinity cleavage assays (25 mM Tris-acetate, 10 mM NaCl, 100 μM/base pair calf thymus DNA, pH 7.0 and 22° C.) were performed in order to identify the binding orientations of the EDTA analogues of the three hairpin polyamides: ImImPyPy-γ-ImImPyPy-β-Dp-EDTA, ImPyImPy-γ-ImPyImPy-β-Dp-EDTA , and ImImImIm-γ-PyPyPyPy-β-Dp-EDTA.
Depicted in FIG. 17 is a representative affinity cleaving experiment on a 3′-^32P-labeled 282 bp EcoRI/PvuII restriction fragment from plasmid pSES9hp. […] Lane 1, A reaction; lane 2, C reaction; lanes 3-5, 1 μM, 2 μM and 5 μM ImImPyPy-γ-ImImPyPy-β-Dp-EDTA (1-E); lanes 6-8, 1 μM, 2 μM and 5 μM ImPyImPy-γ-ImPyImPy-β-Dp-EDTA (2-E); lanes 9-11, 1 μM, 2 μM and 5 μM ImImImIm-γ-PyPyPyPy-β-Dp-EDTA (3-E); lane 12, intact DNA. All lanes contain 15 kcpm 3′-radiolabeled DNA, 25 mM Tris-acetate buffer (pH 7.0), 10 mM NaCl, and 100 μM/base pair calf thymus DNA. (Right) Affinity cleavage patterns for ImImPyPy-γ-ImImPyPy-β-Dp-EDTA and ImPyImPy-γ-ImPyImPy-β-Dp-EDTA at 1 μM concentration, and ImImImIm-γ-PyPyPyPy-β-Dp-EDTA at 5 μM concentration. Illustration of the 282 bp restriction fragment with the position of the sequence indicated. Bar heights are proportional to the […] at each band. Boxes represent equilibrium binding sites determined by the published model, and only sites that were quantitated by DNase I footprint titrations are boxed.

Another test has as its system 5′-AACCAAGTACTTGGTA-3′. Kind of test: Association constants, recognition of 16 base pairs. The test is classed as binding. The following applies: Table 10, C3-OH polyamides, match site.
Test [2] has as its system 5′-TGTTA-3′. To be noted: cited from earlier work.
The subject of test [3] is 5′-TGTTA-3′. Kind of test: Quantitative DNase I footprint titration, equilibrium association constant.
The subject of another test is 5′-AACCAAGTCTTGGTA-3′. Kind of test: Association constants, recognition of 15 base pairs. To be noted: Table 7, C3-OH polyamides, match site.
The test system of test [4] is 262 bp restriction fragment (EcoRI/FspI) of pBR322. Description: DNA alkylation / cleavage reactions. Format: biochemical. Here is the method: Alkylation was examined on a 262 bp restriction fragment (EcoRI/FspI) of pBR322, radiolabeled on the 3′ end (10,000 cpm/reaction). Polyamide or bromodistamycin were added at appropriate concentrations. Final reaction concentrations were 10 mM sodium phosphate (pH 7.0), 100 μM sonicated calf thymus DNA. The reactions were incubated at 37° C. for 0, 1, 5, 10, 20, and 40 hours. Following incubation, the reactions were ethanol precipitated and dissolved in 10 μl 10 mM sodium phosphate buffer and heated at 90° C. for 15 minutes. Piperidine (40 μl, 1.4 M) was added and the reaction heated again for 15 minutes at 90° C. Piperidine was lyophilized off and the reactions were resuspended in 7 μl 1× TBE/80% formamide loading buffer, denatured by heating at 85° C. for 10 minutes and placed on ice. Reactions were electrophoresed on 8% polyacrylamide gels (5% cross link, 7 M urea) in 1× TBE at 2000V. Gels were dried and exposed to a storage phosphor screen (Molecular Dynamics).

Test [5] deals with nine bp polyamide binding site on restriction fragment from pUC-19. Kind of test: Pvu II endonuclease protection assay, association and dissociation rates. The text has this:
Provided herein is an endonuclease protection assay to measure the rate of polyamide-DNA complex formation. Such an assay may comprise a labeled restriction fragment comprising a polyamide binding site that overlaps a restriction endonuclease cleavage site. Cleavage by the cognate is prevented when the overlapping polyamide binding site is occupied by the polyamide. As a control, a second labeled DNA fragment may be that contains the restriction site, but lacks the overlapping polyamide binding site. The rate of polyamide association with its target binding site may be assessed by incubating the solutions of the polyamide with the labeled target and reference fragments for a sufficient timer period. Using the experimental conditions provided herein, the reference site is nearly completely digested, but protection at the target site is observed and can be correlated with polyamide concentration and the time of equilibration. Similarly, the dissociation rate is analyzed by adding an excess of unlabeled competitor DNA to an equilibrated solution of the labeled DNA fragments and polyamide. Addition of the competitor reduces the concentration of free polyamide to zero. The rate at with polyamide dissociation occurs from the target site on the labeled fragment can be followed by the rate of loss of protection from restriction enzyme digestion as the re-equilibration time is increased.
An engineered, radiolabeled restriction fragment from pUC-19 was prepared in which a nine bp polyamide binding site overlaps by two base pairs with the cleavage site for the restriction endonuclease Pvu II. Cleavage by Pvu II is prevented when the overlapping polyamide binding site is .occupied by the polyamide. As a control, a second radiolabeled DNA fragment was prepared which contains a Pvu II site, but lacks the overlapping polyamide binding site.
The rate of polyamide association with its target binding site was assessed by combining solutions of the polyamide with the radiolabeled target and reference fragments and allowing them to for 5 minutes to 5 hours before initiating a treatment (1-2 minutes) with the enzyme Pvu II. Under the experimental conditions, the reference site is nearly completely digested, but protection at the target site is observed and can be correlated with polyamide concentration and the time of equilibration. Similarly, the dissociation rate is analyzed by adding an excess of unlabeled competitor DNA to an equilibrated solution of the labeled DNA fragments and polyamide. Addition of the competitor reduces the concentration of free polyamide to zero. The rate at with polyamide dissociation occurs from the target site on the labeled fragment can be followed by the rate of loss of protection from Pvu II digestion as the re-equilibration time is increased. The association profile with respect to time for the 9-ring extended hairpin polyamide ImPyPy-γ-ImPyPy-β-PyPyPy-G-Dp binding its cognate 9 base pair match site is shown in FIG. 6.
The extended hairpin dissociation rate has been determined to be kd=3.1±0.2×10^−5 s^−1, this corresponds to a half-time of 6.2 h (10 mM Bis-Tris (pH 7.0), 50 mM NaCl, 5 mM MgCl2, 1 mM mercaptoethanol at 37° C.). Wherein half-time is defined as the time required for 50% of a population of DNA and polyamide to dissociate or associate. The association rate has been determined at ka=1.3±0.8×10^4 M^−1s^−1; this corresponds to a half-time of 3.0 h at 5.0 nM. The determined value for the equilibrium association constant (Keq=6.3±0.8×10^8 M^−1) correlates well with the kinetically determined ratio (ka/kd=4.2±2.6×10^8 M^−1).

Another test relates to 5′-AAAAACACA-3′. Kind of test: Quantitative DNase I footprint titration.
The subject of the next test is 5′-[…]-3′. Description: Quantitative DNase I footprinting, pJT-LTR 245 base pair fragment. The test is classed as binding, HIV-1.

The values below come from patent US6555692B1, “Preparation and use of bifunctional molecules having DNA sequence binding specificity” (California Institute of Technology, priority 1996, dated 2003).

Some results are limits rather than exact numbers.

For `CN(C)CCCNC(=O)c1cc(NC(=O)c2cc(NC(=O)c3cc(NC(=O)CCNC(=O)c4cc(NC(=O)c5cc(NC(=O)c6nccn6C)cn5C)cn4C)cn3C)cn2C)cn1C` [ImPyPy-β-PyPyPy-Dp], the “affinity higher than ImPyPy-Py-PyPyPy-Dp by a factor of” value with 5′-TGTTAAACA-3′ is about 10. The Ka in the test with 5′-TGTTAAACA-3′ (overlapped binding) stood at 8e+08 M⁻¹. The “Ka higher than ImPyPy-Py-PyPyPy-Dp by a factor of” value with 5′-AAAAAGACAAAAA-3′ is on record as about 85. Besides, the “association constant Ka” value in the test with 5′-AAAAAGACAAAAA-3′ (slipped binding) is 5e+09 M⁻¹.
As to ImImImIm-γ-PyPyPyPy-β-Dp-EDTA, the “binding orientation by affinity cleaving” value in test [1] is “single orientation”.
On to `Cn1cc(NC(=O)c2cc(NC(=O)c3cc(NC(=O)CCCNC(=O)c4cc(NC(=O)c5nc(NC(=O)c6nc(NC(=O)CCCCCNC(=O)c7cc(NC(=O)c8cc(NC(=O)c9cc(NC(=O)c%10nccn%10C)cn9C)cn8C)cn7C)cn6C)cn5C)cn4C)cn3C)cn2C)cc1C(=O)NCCCO` [ImPyPyPy-C6-ImImPy-γ-PyPyPy-C3—OH], for which the Ka 5′-AACCAAGTACTTGGTA in the test on 5′-AACCAAGTACTTGGTA-3′ is under 1e+08 M⁻¹.
For `CN(C)CCCNC(=O)c1cc(NC(=O)c2cc(NC(=O)c3cc(NC(=O)CCCNC(=O)c4cc(NC(=O)c5cc(NC(=O)c6nccn6C)cn5C)cn4C)cn3C)cn2C)cn1C` [ImPyPy-γ-PyPyPy-Dp, reference compound], in the test on 5′-TGTTA-3′ [2] (5′-TGTTA-3′ target site, prior art), the “equilibrium association constant Ka” value is 8e+07 M⁻¹. Moreover, the “increase in Ka relative to the unlinked three-ring polyamide pair ImPyPy and PyPyPy” value with 5′-TGTTA-3′ [2] (5′-TGTTA-3′) is recorded as 300 fold. Also, in the test with 5′-TGTTA-3′ [3] (5′-TGTTA-3′ match site), the “apparent first order association constant Ka” value came to 8e+07 M⁻¹. For the same compound, in the test with 5′-TGTTA-3′ [3] (5′-TGTTA-3′ match vs 5′-TGACA-3′ mismatch), the “specificity, match site relative to single base pair mismatch site” value is listed as 24 fold.
`CC(=O)Nc1cn(C)c(C(=O)Nc2cn(C)c(C(=O)Nc3cc(C(=O)NCCCC(=O)Nc4cc(C(=O)Nc5cc(C(=O)Nc6cc(C(=O)NCCCO)n(C)c6)n(C)c5)n(C)c4)n(C)c3)n2)n1` [Ac-ImImPy-γ-PyPyPy-C3—OH]: the “Ka 5′-AACCAAGTACTTGGTA” value with 5′-AACCAAGTACTTGGTA-3′ was 7 × 10^6. The “Ka 5′-AACCAAGTCTTGGTA-3′” value in the test with 5′-AACCAAGTCTTGGTA-3′ was 7 × 10^6.
For the compound `COc1c(O)c2c(c3cc(C(=O)N4CCc5c4c(O)c(OC)c4[nH]c(C(=O)N6C[C@H]7C[C@@]78C6=CC(=O)c6[nH]cc(C)c68)cc54)[nH]c13)CCN2C(N)=O` [(+)CC-1065], the “DNA cleavage (alkylation)” value in test [4] (reaction time 1 hour at 37° C.) is on record as “intense cleavage at 13 adenines”.
Turning to `CN(C)CCCNC(=O)CNC(=O)c1cc(NC(=O)c2cc(NC(=O)c3cc(NC(=O)CCNC(=O)c4cc(NC(=O)c5cc(NC(=O)c6nc(NC(=O)CCCNC(=O)c7cc(NC(=O)c8cc(NC(=O)c9nccn9C)cn8C)cn7C)cn6C)cn5C)cn4C)cn3C)cn2C)cn1C` [ImPyPy-γ-ImPyPy-β-PyPyPy-G-Dp], in [5], the “kinetically determined ratio ka/kd” value is reported as 4.2±2.6×10^8 M^−1. Also, the dissociation rate kd in test [5] (10 mM Bis-Tris (pH 7.0), 50 mM NaCl, 5 mM MgCl2, 1 mM mercaptoethanol at 37° C.) is reported as 3.1±0.2×10^−5 s^−1. Besides, in test [5] (37° C.), the association rate ka is recorded as 1.3±0.8×10^4 M^−1s^−1, the dissociation half-time was 6.2 h and the “equilibrium association constant Keq” value was 6.3±0.8×10^8 M^−1. In [5] (at 5.0 nM), this compound gave an association half-time of 3.0 h. The “increase in affinity relative to six-ring hairpin ImPyPy-γ-ImPyPy-β-Dp” value with 5′-AAAAACACA-3′ was about 400 fold. Moreover, the Kd on 5′-AAAAACACA-3′ (read-out: concentration at which the target site is bound, 9-bp target site) was 0.05 nM.
As to ImImPyPy-γ-ImImPyPy-β-Dp-EDTA, the “binding orientation by affinity cleaving” value in test [1] is recorded as “two equivalent orientations”.
On to `Cn1cc(NC(=O)c2cc(NC(=O)c3cc(NC(=O)CBr)cn3C)cn2C)cc1C(=O)NCCC(=N)N` [N-Bromoacetyldistamycin], for which the “DNA cleavage (alkylation)” value is on record as “comparable amount of cleavage to (+) CC-1065 at 1 hour, but at only one adenine” in test [4] (after 10 hours at 37°) and “almost no visible cleavage” in test [4] (reaction time 1 hour at 37° C.).
For `CN(C)CCCNC(=O)CCNC(=O)c1cc(NC(=O)c2cc(NC(=O)CCNC(=O)c3cc(NC(=O)c4nc(NC(=O)CCNC(=O)c5cc(NC(=O)c6nc(NC(=O)CCNC(=O)c7cc(NC(=O)c8nccn8C)cn7C)cn6C)cn5C)cn4C)cn3C)cn2C)cn1C` [ImPy-β-ImPy-β-ImPy-β-PyPy-β-Dp], in the test on 5′-[…]-3′, the “lower affinity at other mismatch-sites on the restriction fragment” value is recorded as 10-20 fold. Also, the “apparent monomeric association constant Ka” value in the test with 5′-[…]-3′ (16 bp target site, pH 7.0, 24° C., values above 1-2×10^10 M^−1 are a lower limit) was 3.5e+10 M⁻¹. Further, the “lower affinity at proximal two-base pair mismatch site” value with 5′-[…]-3′ ([…]) is listed as “at least 35 fold”.
Regarding ImPyImPy-γ-ImPyImPy-β-Dp-EDTA, the “binding orientation by affinity cleaving” value in test [1] is listed as “two equivalent orientations”.
